Laboratory results published in article PMC8329121 (Journal of Neuroimmune Pharmacology, 2021).
Residue numbers refer to the chain shown, from its start.

Legend:
[1] = molecular target: T1, E2C hDAT (C90A/C306A hDAT) (Homo sapiens, UniProt Q01959, C306A/C90A); experiment: MTSET assay, [3H]DA uptake in HEK293 cells; assay type: cell-based
T1 construct: expressed in transfected cells; host or cells: HEK293 cells, transient, pcDNA3.1+
T1 sequence (Q01959 1-620 C90A/C306A): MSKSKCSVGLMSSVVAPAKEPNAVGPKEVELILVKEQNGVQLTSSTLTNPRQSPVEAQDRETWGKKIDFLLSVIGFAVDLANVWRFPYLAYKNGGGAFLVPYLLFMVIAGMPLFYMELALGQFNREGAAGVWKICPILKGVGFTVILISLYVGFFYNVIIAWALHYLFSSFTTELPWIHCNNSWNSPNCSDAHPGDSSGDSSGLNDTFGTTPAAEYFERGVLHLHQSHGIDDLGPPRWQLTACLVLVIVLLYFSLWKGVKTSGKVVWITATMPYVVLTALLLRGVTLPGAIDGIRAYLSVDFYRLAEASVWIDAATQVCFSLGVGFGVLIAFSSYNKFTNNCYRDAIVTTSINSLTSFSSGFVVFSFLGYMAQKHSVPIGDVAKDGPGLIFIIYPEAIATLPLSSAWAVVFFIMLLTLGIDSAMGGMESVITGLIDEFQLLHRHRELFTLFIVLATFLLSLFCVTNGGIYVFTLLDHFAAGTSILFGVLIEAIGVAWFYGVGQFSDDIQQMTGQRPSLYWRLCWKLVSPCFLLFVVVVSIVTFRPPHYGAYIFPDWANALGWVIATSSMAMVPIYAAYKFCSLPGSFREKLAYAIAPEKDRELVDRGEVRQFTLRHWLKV
Description: (§1) All mutants on hDAT were generated based on the predictions made using our computational model, as described previously using site-directed mutagenesis based on the wild-type hDAT (WT hDAT) sequence (NCBI, cDNA clone MGC: 164,608 IMAGE: 40,146,999) (Quizon et al. [2016]). The combination of hDAT mutations on Asp206 and His547 (Aspartic acid 206 to leucine and histidine 547 to alanine, D206L/H547A) were predicted to eliminate two hydrogen bonds between Tat and hDAT. In addition, the combination of mutations on Tyr88, Asp206, and His547 (tyrosine88 to phenylalanine and aspartic acid 206 to leucine and histidine 547 to alanine, Y88F/D206L/H547A) were predicted to eliminate three hydrogen bonds from the Tat-hDAT complex. Two extracellular cysteine90 and cysteine306 residues on WT hDAT were mutated to alanine as E2C hDAT (C90A/C306A hDAT), rendering the E2C hDAT MTSET-insensitive background (Pedersen et al. [2014]). A triple mutation of the two cysteine90 and 306 residues to alanine and […] to cysteine on WT hDAT was generated as E2C-I159C hDAT (C90A/C306A/I159C) for MTSET-sensitive construct. A combination of C90A/C306A/H547A was generated as E2C/H547A hDAT for MTSET-insensitive control for H547A. To determine whether H547A-enhanced DA transport is mediated by changing transporter conformation, two combinations of C90A/C306A/I159C/H547A and C90A/C306A/I159A/H547A were generated as E2C-I159C/H547A and E2C-I159A/H547A for positive and negative controls for MTSET sensitive background, respectively. Synthetic cDNA encoding hDAT subcloned into pcDNA3.1+ (provided by Dr. Haley E Melikian, University of Massachusetts) was used as a template to generate mutants using site-directed mutagenesis performed by GENEWIZ (South Plainfield, NJ). DNA sequencing was also performed by GENEWIZ to confirm the sequences of the mutant constructs. Plasmid DNA were propagated and purified using the Qiagen Hi-speed maxi prep plasmid DNA isolation kit (Qiagen, Valencia, CA, USA).
(§2) This assay was performed based on the previous report with minor modifications (Loland et al. [2004], [2008]). First, we generated five WT hDAT based plasmid construct for MTSET-insensitive or sensitive background as we described above. HEK293 cells were grown in poly-d-lysine coated plates at a density of 1 × 10^5 cells/cm^2 were transfected with different E2C- associated hDAT background constructs: E2C hDAT, E2C-I159C hDAT, E2C/H547A hDAT, E2C-I159C/H547A or E2C-I159A/H547A. Twenty-four hours after the transfection, cells were washed twice with 1× KRH buffer, and preincubated with or without the presence of 10 µM nomifensine (for non-specific uptake) and MTSET for 10 min at room temperature. MTSET at 1 mM final concentration was chosen based on a pilot study on optimizing MTSET concentrations (0.1, 0.5 or 1.0 mM). […] Because MTSET is easily hydrolyzed in solution, the amount needed for a 10 × stock was weighed out and dissolved in 1 × KRH buffer just right before adding to the assigned wells, for a 10-fold dilution (final concentration of 1 mM in final volume of 250 µl). […] Cells were immediately washed twice with ice-cold 1 × KRH buffer to terminate the reaction and were lysed rapidly with the addition of 1 % SDS. Cell lysates were collected after incubation for 1 h at room temperature and radioactivity was determined the next day.

[2] = molecular target: T2, E2C-I159C hDAT (C90A/C306A/I159C) (Homo sapiens, UniProt Q01959, C306A/C90A/I159C); experiment: MTSET assay, [3H]DA uptake in HEK293 cells; assay type: cell-based
T2 construct: expressed in transfected cells; host or cells: HEK293 cells, transient, pcDNA3.1+
T2 sequence (Q01959 1-620 C90A/I159C/C306A): T1 sequence (Q01959 1-620 C90A/C306A) with I159C
Description: as §1, §2

[3] = E2C, 1 mM MTSET, HEK293, Fig. 8b

SMILES: C[N+](C)(C)CCSS(C)(=O)=O [MTSET, [2-(trimethylammonium)ethyl]-methanethiosulfonate]
- [3H]DA uptake in the presence of MTSET [1, 3]: 86.5 ± 6.0
- effect of MTSET on DA uptake [1, 3]: no effect
- effect on [3H]DA uptake ([1]; E2C-hDAT, MTSET 0.1, 0.5, 1.0 mM, pilot study Fig. 8a): no effect
- inhibition of [3H]DA uptake relative to no MTSET addition ([2]; 1 mM MTSET, 10 min, HEK293, pilot study Fig. 8a): 55%
- [3H]DA uptake in the presence of MTSET ([2]; 1 mM MTSET, HEK293, Fig. 8b): 46.0 ± 6.0
- effect on [3H]DA uptake ([2]; MTSET 0.1, 0.5, 1.0 mM, pilot study Fig. 8a): concentration-dependently inhibited
